Data published in ChEMBL document CHEMBL1157539, “Thousands of chemical starting points for antimalarial lead identification” (Nature, 2010).
Values joined by “and” are separate entries in the source; they are usually repeats but may differ in a detail not shown here. Equal entries are not always repeated.

Tested on: Plasmodium falciparum
Experiment: GSK_TCMDC: Inhibition of Plasmodium falciparum 3D7 in whole erythrocytes, using parasite LDH activity as an index of growth.
Format: functional, organism-based

Row | Structure (SMILES) | XC50 (Plasmodium falciparum, 3D7) | XC50
1 | COc1cc2c(cc1OC)C(C(=O)c1ccccc1)=NCC2 | 1090 nM | 
2 | Cc1cccc2nc(-c3ccc(-c4ccc(CNCC5CCCO5)cc4)cc3)[nH]c12 (centres undefined) | 678 nM | 
3 | CCOC(=O)N1CCN(CCCNc2c3ccccc3nc3ccccc23)CC1 | 1010 nM | 
4 | O=C(Nc1ccc(N2CCN(C(=O)/C=C/c3ccccc3)CC2)c(Cl)c1)c1ccc([N+](=O)[O-])o1 | 859 nM | 
5 | COc1cccc(Nc2nccc(NCC(O)c3ccc(C(F)(F)F)cc3)n2)c1 (centres undefined) | 659 nM | 
6 | COc1ccc(Nc2ncc(OC)c(Nc3ccccc3C(N)=O)n2)cc1N1CCN(C)CC1 | 740 nM | 
7 | CC(=NNC(=N)N)c1ccc2c(c1)Cc1ccccc1-2 | 1410 nM | 
8 | CN(C)CCN(C)Cc1ccc(-c2cccc(NC(=O)c3cccc(C#N)c3)c2)cc1 | 1180 nM | 
9 | CCOc1cc(C)c(C2CCN(CCCCNC(=O)c3ccc(NC(=O)c4ccc(Cl)cc4)cc3)CC2)cc1C | 739 nM | 
10 | COCCN(C)c1ccc(C(=O)Nc2ccccc2)cc1NS(=O)(=O)Cc1ccccc1 | 571 nM | 
11 | COc1ccccc1C(=O)C1CCCN(C(=O)c2ccccc2C(F)(F)F)C1 (centres undefined) | 602 nM | 
12 | CN(C)CCOc1cc(NC(=O)Nc2ccc(Oc3ccccc3)cc2)ccc1I | 890 nM | 
13 | Fc1ccc(NC(S)=NN=Cc2ccccn2)cc1 | 775 nM | 
14 | COc1cc2nc(N3CCC(NC(=O)c4cccc(N(C)C)c4)CC3)nc(N)c2cc1OC | 614 nM | 
15 | CCCc1c(C(=O)NC2CCC(CN3CCC(c4c[nH]c5ccccc45)CC3)CC2)cnn1-c1ccccc1 (centres undefined) | 1790 nM | 
16 | c1cc2[nH]c(CCCCCc3nc4cc(C5=N[C@@H]6CCCC[C@@H]6N5)ccc4[nH]3)nc2cc1C1=N[C@@H]2CCCC[C@@H]2N1 | 199 nM | 
17 | COc1cc(-c2ccc3c(-c4ccc(C(=O)N5CCN(C)CC5)cc4)n[nH]c3n2)cc(OC)c1OC | 1330 nM | 
18 | CC[C@H](C)CNC(=O)c1cncc(-c2cccc(CNCCCc3ccccc3)c2)c1 | 1170 nM | 
19 | O=C(Nc1cccc(C(F)(F)F)c1)c1ccc(S(=O)(=O)NC2CCN(CC3CCCCC3)CC2)cc1 | 1160 nM | 
20 | COc1cc2nc(N3CCC(CNC(=O)c4ccc(-c5cccc(C#N)c5)cc4)CC3)nc(N)c2cc1OC | 139 nM | 
21 | Brc1ccsc1-c1nc(NCCC(c2ccccc2)c2ccccc2)no1 | 1080 nM | 
22 | COc1ccc(CNC2Cc3ccccc3C2)cc1-c1cccc(S(=O)(=O)NCCN2CCCC2)c1 | 760 nM | 
23 | CC1CCN(Cc2c(O)ccc3c(O)c(-c4nc5ccccc5s4)c(=N)oc23)CC1 | 162 nM | 
24 | Cn1ccc(-c2cccc(Nc3ccnc4cc(-c5nccs5)ccc34)c2)n1 | 405 nM | 
25 | CCn1ncc(Cl)c1CN(C)S(=O)(=O)c1ccc(Br)cc1 | 1020 nM | 

Row | Structure (SMILES) | XC50 (Plasmodium falciparum, 3D7) | XC50
26 | Cc1cc(C(=O)Nc2ccc3c(ccn3C3CCCN(Cc4ccc(C(F)(F)F)cc4F)CC3)c2)no1 (centres undefined) | 765 nM | 
27 | Cc1ccc(C(=O)Nc2ccc(C)c(OC3CCN(CCC(C)C)C3)c2)cc1 (centres undefined) | 793 nM | 
28 | CCCCCCC(C)(C)c1cc(O)c2c3c(c(=O)oc2c1)CCN(Cc1ccccc1)C3 | 217 nM | 
29 | CC(C)N(C)C(=O)n1cnc(S(=O)(=O)C2CC3CCC2C3)n1 (centres undefined) | 57 nM | 
30 | O=C(Cn1c(CCc2cccc(F)c2F)nc(=O)c2ccccc21)N(CCN1CCCC1)Cc1ccc(-c2ccc(C(F)(F)F)cc2)cc1 | 711 nM | 
31 | CCc1cccc2c(C#N)cn(CC(=O)Nc3ccc(OC)cc3)c12 | 772 nM | 
32 | O=C(Nc1ccc(N2CCC(Nc3ccccn3)CC2)cc1)c1cnc(Cl)c(Cl)c1 | 1190 nM | 
33 | O=C(NC(CCCN1CCC(c2ccccc2)CC1)c1ccc(Cl)c(Cl)c1)c1cc(C(F)(F)F)cc(C(F)(F)F)c1 (centres undefined) | 865 nM | 
34 | O=S(=O)(NCCN1CCCC1)c1cccc(-c2cccc(CNCc3ccc(F)cc3)c2)c1 | 848 nM | 
35 | NC(=O)c1ccccc1OCC(=O)Nc1cccc(-c2cccc(-c3nc4ccccc4[nH]3)c2)c1 | 376 nM | 
36 | CN1CCc2cc(NS(=O)(=O)c3ccc(-c4ccc(Cl)cc4)cc3)c(OCCCN3CCCCC3)cc2CC1 | 961 nM | 
37 | CN1CCN(CC(=O)Nc2ccc(-c3cccc(-c4nc5cc(F)ccc5[nH]4)c3)cc2)CC1 | 832 nM | 
38 | CC(C)COc1ccc(Cl)cc1Cc1ccc(-c2nc3ccc(Br)cc3[nH]2)o1 | 1400 nM | 
39 | N#Cc1cccc(C(=O)Nc2ccc(-c3nc4ccccc4[nH]3)cc2)c1 | 541 nM | 
40 | CC(C)CCNC(=N)c1ccc(OCCCCCOc2ccc(C(=N)NCCC(C)C)cc2)cc1 | 534 nM | 
41 | COc1cc2nc(N3CCC(CNC(=O)c4ccc(-c5ccc(C(=O)N(C)C)cc5)cc4)CC3)nc(N)c2cc1OC | 746 nM | 
42 | CCOc1ccc2c(c1)C(C)(c1ccc3c(c1)C(C)CC(C)(C)N3)CC(C)(C)N2 (centres undefined) | 803 nM | 
43 | Cc1cccc2nc(-c3cccc(-c4cccc(CNCCc5ccncc5)c4)c3)[nH]c12 | 139 nM | 
44 | CCn1ccc2c(N3CCCS3(=O)=O)cc(C(=O)N[C@@H](Cc3ccccc3)[C@H](O)CNC3CCCCC3)cc21 | 137 nM | 
45 | NC(=O)c1cccc(-n2ccc3cc(CNC4Cc5ccccc5C4)ccc32)c1 | 1130 nM | 
46 | COc1ccc(CNCC(C)(C)c2nc(-c3ccc(Cl)c(O)c3)c(-c3ccncc3)[nH]2)cc1 | 357 nM | 
47 | O=C(COc1ccccc1)NC1CCN(c2ccnc3cc(Cl)ccc23)C1 (centres undefined) | 698 nM | 
48 | OC(c1nnc(S)n1-c1ccccc1)C(O)c1nnc(S)n1-c1ccccc1 (centres undefined) | 741 nM | 
49 | O=C(NCCN1CCC(c2ncc(-c3ccccc3)o2)CC1)c1ccc(NC(=O)c2ccc(Cl)cc2)cc1 | 244 nM | 
50 | CC(O)C1CCCCN1C(=O)c1cccc(-c2ccc(-c3nc4cc(F)ccc4[nH]3)cc2)c1 (centres undefined) | 742 nM | 

Row | Structure (SMILES) | XC50 (Plasmodium falciparum, 3D7) | XC50
51 | O=C(O)C1Cc2c([nH]c3ccccc23)C(c2ccc(Cl)cc2Cl)N1 (centres undefined) | 954 nM | 
52 | O=c1cc(NCCCN(Cc2ccccc2)Cc2ccccc2)[nH]c2ccccc12 | 577 nM | 
53 | Cc1ccc(C(C)C)c(Oc2ccc3nc(N)nc(N)c3c2)c1 | 10.2 nM | 
54 | O=[N+]([O-])c1cccc(C=NNc2nc(=Nc3ccccc3)[nH]c(=Nc3ccccc3)[nH]2)c1 | 968 nM | 
55 | O=C(Nc1cc(C(F)(F)F)cc(C(F)(F)F)c1)NC(CCCN1CCC2(CC1)OCc1ccccc12)c1ccc(Cl)c(Cl)c1 (centres undefined) | 820 nM | 
56 | N#CC(c1cccc(Cl)c1)c1ccc2c(C(F)(F)F)cc(C(F)(F)F)nc2n1 (centres undefined) | 727 nM | 
57 | COc1ccc2ncc(F)c([C@@H](O)CN3CCC(NCc4ccc5c(c4)NCCS5)CC3)c2n1 | 504 nM | 
58 | CN1CCN(Cc2ccc(-c3ccc4c(Nc5ccc(F)cc5Cl)ccnc4c3)o2)CC1 | 143 nM | 
59 | OC1(c2ccccc2)c2cc(Cl)ccc2OC1c1nc2c(Cl)ccc(Cl)c2o1 (centres undefined) | 301 nM | 
60 | CCCCN(CCCC)CCCN(CCCN(CCCC)CCCC)c1cc(C)nc(Nc2ccc(Br)cc2)n1 | 131 nM | 
61 | COc1ccc(CN2CCN(CCOC(c3ccccc3)c3ccc(Cl)cc3)CC2)c(O)c1 (centres undefined) | 713 nM | 
62 | COc1cc2[nH]c(-c3ccc(O)cc3)c(C)c(=O)c2c(OC)c1OC | 717 nM | 
63 | COc1cc(Nc2nc(N)c3cc(OC)c(OC)cc3n2)cc(OC)c1 | 272 nM | 
64 | NC(=O)c1cccc(C(=O)Nc2cccc(-c3csc(-c4nc5ccccc5[nH]4)c3)c2)c1 | 133 nM | 
65 | COCCNCc1ncsc1-c1ccc2c(Nc3cc(O)c(Cl)cc3F)ccnc2c1 | 547 nM | 
66 | C=CCn1c(=N)c(C(=O)NC2CCCCC2)cc2c(=O)n3cccc(C)c3nc21 | 1040 nM | 
67 | CCN(C(=O)NC)C1c2cc(C#N)ccc2OC(C)(C)C1O (centres undefined) | 304 nM | 
68 | N#Cc1ccc(N2C[C@@H](OCc3ccccc3)C[C@H]2C(=O)NCCC(c2ccccc2)c2ccccc2)c2ccccc12 | 856 nM | 
69 | Cc1c(CN2CCCCC2)cccc1OCCCNc1nc(NCCc2ccc(O)cc2)nc(N2CCNCC2)n1 | 223 nM | 
70 | O=C(/C=C/c1ccc(C(F)(F)F)cc1)NC1CCC(CN2CCC(c3c[nH]c4ccccc34)CC2)CC1 (centres undefined) |  | 964 nM and 369 nM
71 | Nc1nc(N)c2c(ccc3ccccc32)n1 | 749 nM | 
72 | CCCCOC(=O)c1ccc(Nc2cc(C)nc3ccc(OC)cc23)cc1 | 640 nM | 
73 | COc1ccc(Nc2ccnc3cc(Cl)ccc23)cc1OC | 1120 nM | 
74 | COc1ccccc1CCNc1nc(C)cc(N[C@@H](Cc2ccccc2)C(=O)NCc2cccs2)n1 | 634 nM | 
75 | O=c1[nH]nc(-c2ccc(N3CCCC3)c([N+](=O)[O-])c2)c2ccccc12 | 631 nM | 

Row | Structure (SMILES) | XC50 (Plasmodium falciparum, 3D7) | XC50
76 | COc1cc2nc(NCc3ccccc3)nc(NCc3ccccc3)c2cc1OC | 151 nM | 
77 | Cc1[nH]c(C)c(-c2cc3ccccc3o2)c(=O)c1Cl | 1720 nM | 
78 | Cc1cccc2nc(-c3ccc(-c4ccc(NC(=O)C5CCN(C)CC5)cc4)cc3)[nH]c12 | 748 nM | 
79 | COc1ccccc1C(=O)Nc1ccc(Nc2nc(C)cc(N3CCOCC3)n2)cc1 | 528 nM | 
80 | Cc1nc(N)nc(N)c1CCCOc1ccccc1Br | 424 nM | 
81 | O=C(NCCNc1ccnc(NCc2ccc(F)cc2)n1)c1cc2ccccc2s1 | 695 nM | 
82 | O=C(c1cc(C(=O)Nc2ccccc2)c(=O)n(-c2ccccc2)c1)c1cc(Cl)ccc1O | 390 nM | 
83 | COCCNCc1ccc(-c2cccc(CN(C(=O)NCCc3ccccc3)C3CCN(Cc4ccccc4)CC3)c2)cc1 | 918 nM | 
84 | CN1Cc2ccc(NS(=O)(=O)c3ccc(-c4ccoc4)cc3)cc2C1 | 160 nM | 
85 | O=C(CCCCCNC(=O)c1ccc(O)c(-c2ccc(Cl)c(Cl)c2)c1)NCCN1CCCCC1 | 886 nM | 
86 | CCCc1cn2c3c(cc(C(=O)N[C@@H](Cc4ccccc4)[C@H](O)CNC4CCOCC4)cc13)N(CC)S(=O)(=O)CC2 | 98.8 nM | 
87 | CC(CCON1C(N)=NC(N)=NC1(C)C)c1ccc(Cl)cc1 (centres undefined) | 3.2 nM | 
88 | Cc1ccc(C)c(NC(=O)Nc2ccc(Nc3nc(C)cc(N4CCOCC4)n3)cc2)c1 | 978 nM | 
89 | Cc1ccc2c(Cl)c(C(=O)N3CCCc4ccccc43)sc2c1 | 1510 nM | 
90 | Cc1cnccc1/C=C/c1cccc(OCCN2CCc3ccc(S(C)(=O)=O)cc3CC2)c1 | 267 nM | 
91 | COc1cc2nc(NCCn3cccn3)nc(NCCc3ccccc3)c2cc1OC | 281 nM | 
92 | COc1nc2c(CCN3CCC(NCc4ccc5c(c4)NCCO5)CC3)c(Cl)cnc2cc1F | 179 nM | 
93 | CC(C)c1ccc2[nH]c(C(=O)NC3CCC(N4CCCc5ccc(C#N)cc5C4)CC3)cc2c1 (centres undefined) | 1090 nM | 
94 | Cc1ccc2[nH]c(C)cc(=NN=Cc3cccc(F)c3)c2c1 | 631 nM | 
95 | CCN1C(=O)N(CCC(C)C)C2(CCN(Cc3ccc(OC)cc3O)CC2)C1=O | 868 nM | 
96 | c1ccc(CN2CCC(NCc3ccccc3-c3ccc(CNCc4ccc5c(c4)OCO5)cc3)CC2)cc1 | 326 nM | 
97 | CC(C)N(Cc1cnc(N)c(C#N)n1)c1ccc(Cl)c(Cl)c1 | 844 nM | 
98 | CCc1ccc(NC(=O)c2ccc(CN3CCCN(Cc4cccc(C)c4)CC3)cc2)cc1 | 1130 nM | 
99 | CC(C)C(=O)n1ncc2c3c(N)nc(N)nc3ccc21 | 1030 nM | 
